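Method: 48-hour compound exposure of cells in 96-well plates, five concentrations, linear interpolation of endpoints. TGI denotes the concentration required for complete inhibition of growth.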
How the values were obtained:
Test in all cases: NCI anticancer screen, dose series, 48 h
SNB-19 CNS = tested on: SNB-19 CNS
SK-OV-3 ovarian = tested on: SK-OV-3 ovarian
OVCAR-4 ovarian = tested on: OVCAR-4 ovarian
MDA-MB-435 = tested on: MDA-MB-435
ACHN renal = tested on: ACHN renal
SK-MEL-2 melanoma = tested on: SK-MEL-2 melanoma
MCF7 breast = tested on: MCF7 breast
SK-MEL-5 melanoma = tested on: SK-MEL-5 melanoma
RXF 393 renal = tested on: RXF 393 renal
OVCAR-5 ovarian = tested on: OVCAR-5 ovarian
KM12 colon = tested on: KM12 colon
NCI-H23 lung = tested on: NCI-H23 lung
786-0 renal = tested on: 786-0 renal
TK-10 renal = tested on: TK-10 renal
RPMI-8226 leukemia = tested on: RPMI-8226 leukemia
SF-268 CNS = tested on: SF-268 CNS
MDA-MB-231 breast = tested on: MDA-MB-231 breast
MOLT-4 leukemia = tested on: MOLT-4 leukemia
NCI-H226 lung = tested on: NCI-H226 lung
SR leukemia = tested on: SR leukemia
SK-MEL-28 melanoma = tested on: SK-MEL-28 melanoma
K-562 leukemia = tested on: K-562 leukemia
M14 melanoma = tested on: M14 melanoma
SW-620 colon = tested on: SW-620 colon
EKVX NSCLC = tested on: EKVX NSCLC
NCI/ADR-RES ovarian = tested on: NCI/ADR-RES ovarian
UACC-257 melanoma = tested on: UACC-257 melanoma
OVCAR-3 ovarian = tested on: OVCAR-3 ovarian
DU-145 prostate = tested on: DU-145 prostate
SN12C renal = tested on: SN12C renal
HOP-62 NSCLC = tested on: HOP-62 NSCLC
HCT-15 colon = tested on: HCT-15 colon
IGROV1 ovarian = tested on: IGROV1 ovarian
NCI-H460 lung = tested on: NCI-H460 lung
A498 renal = tested on: A498 renal
SNB-75 CNS = tested on: SNB-75 CNS
UACC-62 melanoma = tested on: UACC-62 melanoma
PC-3 prostate = tested on: PC-3 prostate
T-47D breast = tested on: T-47D breast
COLO 205 colon = tested on: COLO 205 colon
A549 NSCLC = tested on: A549 NSCLC
HT29 colon = tested on: HT29 colon
BT-549 breast = tested on: BT-549 breast
OVCAR-8 ovarian = tested on: OVCAR-8 ovarian
HCC-2998 colon = tested on: HCC-2998 colon
SF-295 CNS = tested on: SF-295 CNS
SF-539 CNS = tested on: SF-539 CNS
UO-31 renal = tested on: UO-31 renal
MDA-N = tested on: MDA-N
U251 CNS = tested on: U251 CNS
HCT-116 colon = tested on: HCT-116 colon
HOP-92 NSCLC = tested on: HOP-92 NSCLC
CAKI-1 renal = tested on: CAKI-1 renal
CCRF-CEM leukemia = tested on: CCRF-CEM leukemia
NCI-H522 lung = tested on: NCI-H522 lung
HL-60(TB) leukemia = tested on: HL-60(TB) leukemia
LOX IMVI melanoma = tested on: LOX IMVI melanoma
MALME-3M melanoma = tested on: MALME-3M melanoma

COc1ccc(/C=C2/SC(c3ccc(Cl)cc3)N(NC(=O)CCCCCCCCC(=O)NN3C(=O)/C(=C\c4ccc(OC)c(OC)c4)SC3c3ccc(Cl)cc3)C2=O)cc1OC (stereo not drawn)
TGI (SNB-19 CNS): > 100 µM | TGI (SK-OV-3 ovarian): > 100 µM | TGI (OVCAR-4 ovarian): > 100 µM | TGI (MDA-MB-435): > 100 µM | TGI (ACHN renal): > 100 µM | TGI (SK-MEL-2 melanoma): > 100 µM | TGI (MCF7 breast): > 100 µM | TGI (SK-MEL-5 melanoma): > 100 µM | TGI (RXF 393 renal): 70.7 µM | TGI (OVCAR-5 ovarian): > 100 µM | TGI (KM12 colon): > 100 µM | TGI (NCI-H23 lung): 47.1 µM | TGI (786-0 renal): 76.8 µM | TGI (TK-10 renal): > 100 µM | TGI (RPMI-8226 leukemia): > 100 µM | TGI (SF-268 CNS): > 100 µM | TGI (MDA-MB-231 breast): > 100 µM | TGI (MOLT-4 leukemia): > 100 µM | TGI (NCI-H226 lung): > 100 µM | TGI (SR leukemia): > 100 µM | TGI (SK-MEL-28 melanoma): > 100 µM | TGI (K-562 leukemia): > 100 µM | TGI (M14 melanoma): > 100 µM | TGI (SW-620 colon): > 100 µM | TGI (EKVX NSCLC): 78.7 µM | TGI (NCI/ADR-RES ovarian): > 100 µM | TGI (UACC-257 melanoma): > 100 µM | TGI (OVCAR-3 ovarian): > 100 µM | TGI (DU-145 prostate): > 100 µM | TGI (SN12C renal): > 100 µM | TGI (HOP-62 NSCLC): 57.9 µM | TGI (HCT-15 colon): > 100 µM | TGI (IGROV1 ovarian): 59.8 µM | TGI (NCI-H460 lung): > 100 µM | TGI (A498 renal): 82.1 µM | TGI (SNB-75 CNS): > 100 µM | TGI (UACC-62 melanoma): 89.3 µM | TGI (PC-3 prostate): > 100 µM | TGI (T-47D breast): > 100 µM | TGI (COLO 205 colon): > 100 µM | TGI (A549 NSCLC): > 100 µM | TGI (HT29 colon): > 100 µM | TGI (BT-549 breast): > 100 µM | TGI (OVCAR-8 ovarian): > 100 µM | TGI (HCC-2998 colon): > 100 µM | TGI (SF-295 CNS): 59.9 µM | TGI (SF-539 CNS): 85.5 µM | TGI (UO-31 renal): > 100 µM | TGI (MDA-N): 98.4 µM | TGI (U251 CNS): > 100 µM | TGI (HCT-116 colon): > 100 µM | TGI (HOP-92 NSCLC): 48.8 µM | TGI (CAKI-1 renal): > 100 µM

C#Cc1cc(-c2nc3ccccc3s2)ccc1N
TGI (SNB-19 CNS): 66.9 µM | TGI (SK-OV-3 ovarian): 69.7 µM | TGI (OVCAR-4 ovarian): 47.1 µM | TGI (MDA-MB-435): 40.4 µM | TGI (ACHN renal): 70.3 µM | TGI (SK-MEL-2 melanoma): 35.9 µM | TGI (MCF7 breast): 31.4 µM | TGI (SK-MEL-5 melanoma): 68.6 µM | TGI (RXF 393 renal): 93.9 µM | TGI (CCRF-CEM leukemia): 56 µM | TGI (OVCAR-5 ovarian): > 100 µM | TGI (KM12 colon): 46.9 µM | TGI (NCI-H23 lung): 55.9 µM | TGI (786-0 renal): > 100 µM | TGI (TK-10 renal): 36.8 µM | TGI (RPMI-8226 leukemia): 76.8 µM | TGI (SF-268 CNS): > 100 µM | TGI (MOLT-4 leukemia): 91.1 µM | TGI (NCI-H226 lung): 47.8 µM | TGI (SR leukemia): 92.4 µM | TGI (SK-MEL-28 melanoma): 35.6 µM | TGI (K-562 leukemia): 89 µM | TGI (M14 melanoma): 34.5 µM | TGI (SW-620 colon): 81.8 µM | TGI (EKVX NSCLC): 65 µM | TGI (NCI/ADR-RES ovarian): 86.5 µM | TGI (UACC-257 melanoma): 27.9 µM | TGI (OVCAR-3 ovarian): 42.4 µM | TGI (DU-145 prostate): 39.5 µM | TGI (SN12C renal): 79 µM | TGI (HOP-62 NSCLC): > 100 µM | TGI (HCT-15 colon): 42.8 µM | TGI (IGROV1 ovarian): 53.8 µM | TGI (NCI-H460 lung): 74.5 µM | TGI (NCI-H522 lung): 32.3 µM | TGI (UACC-62 melanoma): 36.6 µM | TGI (PC-3 prostate): 94.1 µM | TGI (T-47D breast): 45.6 µM | TGI (COLO 205 colon): 32.9 µM | TGI (A549 NSCLC): 42.8 µM | TGI (HL-60(TB) leukemia): > 100 µM | TGI (HT29 colon): 33 µM | TGI (BT-549 breast): 94.9 µM | TGI (OVCAR-8 ovarian): > 100 µM | TGI (HCC-2998 colon): 32.6 µM | TGI (SF-295 CNS): 54.8 µM | TGI (SF-539 CNS): 81.3 µM | TGI (LOX IMVI melanoma): 27.8 µM | TGI (UO-31 renal): 56.3 µM | TGI (MDA-N): 97.6 µM | TGI (U251 CNS): 63.6 µM | TGI (HCT-116 colon): 32.9 µM | TGI (HOP-92 NSCLC): 44.7 µM | TGI (CAKI-1 renal): 50.4 µM | TGI (MALME-3M melanoma): 63.4 µM

Source: PubChem BioAssay (NCI)
